Data on 47 compounds can be found in ChEMBL document CHEMBL1129291, “Tyrosine kinase inhibitors. 8. An unusually steep structure-activity relationship for analogues of 4-(3-bromoanilino)-6,7-dimethoxyquinazoline (PD 153035), a potent inhibitor of the epidermal growth factor receptor” (J Med Chem, 1996).

Some results are limits rather than exact numbers.

The target in this experiment is Epidermal growth factor receptor (Homo sapiens, UniProt P00533). Nature of the experiment: Concentration required to inhibit the phosphorylation of a 14-residue fragment of phospholipase C gamma 1 by Epidermal growth factor receptor from A431 cell vesicles.
Chain of Epidermal growth factor receptor (P00533 whole entry, the tested form may be a part): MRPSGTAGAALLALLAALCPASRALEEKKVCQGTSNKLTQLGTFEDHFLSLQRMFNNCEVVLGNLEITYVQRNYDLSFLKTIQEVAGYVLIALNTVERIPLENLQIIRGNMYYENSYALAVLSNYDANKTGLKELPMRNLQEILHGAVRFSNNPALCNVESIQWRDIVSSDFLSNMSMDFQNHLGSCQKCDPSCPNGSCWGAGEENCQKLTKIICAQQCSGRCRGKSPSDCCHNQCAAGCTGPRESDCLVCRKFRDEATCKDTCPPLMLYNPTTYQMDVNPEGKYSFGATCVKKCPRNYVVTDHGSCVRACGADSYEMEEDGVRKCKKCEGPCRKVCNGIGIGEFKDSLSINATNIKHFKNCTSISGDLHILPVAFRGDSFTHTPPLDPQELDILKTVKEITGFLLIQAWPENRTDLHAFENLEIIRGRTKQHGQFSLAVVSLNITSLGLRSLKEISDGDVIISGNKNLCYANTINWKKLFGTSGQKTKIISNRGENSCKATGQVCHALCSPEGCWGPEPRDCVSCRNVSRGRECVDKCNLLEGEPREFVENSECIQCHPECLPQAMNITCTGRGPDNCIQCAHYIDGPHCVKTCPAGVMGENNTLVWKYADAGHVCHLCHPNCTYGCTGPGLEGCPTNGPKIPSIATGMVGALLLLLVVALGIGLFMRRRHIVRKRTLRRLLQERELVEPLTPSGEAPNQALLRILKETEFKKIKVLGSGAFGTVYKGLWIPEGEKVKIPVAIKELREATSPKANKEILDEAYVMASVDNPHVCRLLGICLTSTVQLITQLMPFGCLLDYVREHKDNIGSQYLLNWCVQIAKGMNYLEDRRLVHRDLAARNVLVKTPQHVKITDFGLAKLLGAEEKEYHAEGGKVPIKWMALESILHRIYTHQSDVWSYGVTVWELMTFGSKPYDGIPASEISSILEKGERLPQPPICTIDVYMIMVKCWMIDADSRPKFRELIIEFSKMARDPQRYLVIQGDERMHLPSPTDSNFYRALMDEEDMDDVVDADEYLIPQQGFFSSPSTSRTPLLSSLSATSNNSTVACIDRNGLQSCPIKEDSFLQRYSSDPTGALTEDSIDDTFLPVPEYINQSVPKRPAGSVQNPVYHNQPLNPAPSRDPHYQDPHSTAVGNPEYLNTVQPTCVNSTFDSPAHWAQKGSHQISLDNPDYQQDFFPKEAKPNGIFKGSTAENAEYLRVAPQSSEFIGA
As a reminder, the IC50 is the midpoint of a concentration-inhibition curve. In the case of `COc1cc2nc(C)nc(Nc3cccc(Br)c3)c2cc1OC`, the IC50 was > 10000 nM.
As for `COc1cc2ncnc(Nc3cccc(C(F)(F)F)c3)c2cc1OC`, half-maximal inhibition (IC50) was put at 0.24 nM.
As for `COc1cc2ncnc(Nc3cccc(Br)c3)c2c(OC)c1OC`, the figure is 0.67 nM.
The compound `CCCCOc1cc2ncnc(Nc3cccc(Br)c3)c2cc1OCCCC` had an IC50 of 105 nM.
The value for `O=[N+]([O-])c1ccc2ncnc(Nc3cccc(C(F)(F)F)c3)c2c1` was > 10000 nM; that for `COc1cc2ncnc(Nc3ccc(Br)c(Br)c3)c2cc1OC` was 0.072 nM.
Consider `COc1cc2ncnc(Nc3ccc(Br)cc3)c2cc1OC`, for which the IC50 was 0.96 nM.
With `Nc1ccc2ncnc(Nc3cccc(C(F)(F)F)c3)c2c1`, the IC50 is 574 nM.
On to `O=[N+]([O-])c1ccc2ncnc(Nc3ccccc3)c2c1`, for which inhibition was half-maximal at 5000 nM (IC50).
The value for `COc1ccc2ncnc(Nc3ccccc3)c2c1` was 55 nM; that for `Nc1ccc2c(Nc3cccc(Cl)c3)ncnc2c1` was 0.25 nM; that for `CCOc1cc2ncnc(Nc3cccc(Br)c3)c2cc1OCC` was 0.006 nM.
As for `CCCOc1cc2ncnc(Nc3cccc(Br)c3)c2cc1OCCC`, the figure is 0.17 nM; as for `COc1cc2c(Nc3cccc(Br)c3)ncnc2c(OC)c1OC`, > 10000 nM; as for `CNc1ccc2ncnc(Nc3cccc(Br)c3)c2c1`, 4 nM.
`CN(C)c1ccc2ncnc(Nc3cccc(Br)c3)c2c1` came in with an IC50 of 84 nM.
`COc1ccc2ncnc(Nc3cccc(Br)c3)c2c1` had an IC50 of 30 nM.
The value for `Nc1cc2c(Nc3cccc(Br)c3)ncnc2cc1Cl` was 6.5 nM; that for `COc1cc2ncnc(Nc3cccc(Br)c3)c2cc1[N+](=O)[O-]` was 15 nM.
The compound `O=[N+]([O-])c1cc2c(Nc3cccc(Br)c3)ncnc2cc1Cl` showed an IC50 of 25 nM.
In turn, `Nc1ccc2ncnc(Nc3ccccc3)c2c1` had an IC50 of 770 nM.
As to `CN(C)c1ccc2c(Nc3cccc(Br)c3)ncnc2c1`, it took 11 nM to reach half-maximal inhibition (IC50).
The compound `O=[N+]([O-])c1ccc2c(Nc3ccccc3)ncnc2c1` yielded a half-inhibitory concentration (IC50) of 12000 nM.
Turning to `Nc1ccc2c(Nc3cccc(I)c3)ncnc2c1`, the IC50 is 0.35 nM.
In the case of `COc1cc2ncnc(Nc3ccccc3Br)c2cc1OC`, the IC50 was found to be 128 nM.
The value for `COc1ccc2c(Nc3ccccc3)ncnc2c1` was 120 nM; that for `COc1cc2ncnc(Nc3cc(Br)cc(Br)c3)c2cc1OC` was 113 nM; that for `CNc1cc2ncnc(Nc3cccc(Br)c3)c2cc1[N+](=O)[O-]` was 68 nM.
Consider `CNc1cc2ncnc(Nc3cccc(Br)c3)c2cc1N`, for which the IC50 came out at 0.69 nM.
`Fc1cccc(Nc2ncnc3ccccc23)c1`: the IC50 turned out to be 56 nM.
On to `Brc1cccc(Nc2ncnc3cc4c(cc23)OCO4)c1`, for which half-maximal inhibition (IC50) was put at 15 nM.
The compound `O=[N+]([O-])c1ccc2c(Nc3cccc(I)c3)ncnc2c1` displayed a half-maximal inhibitory concentration (IC50) of 540 nM.
The value for `COc1cc2nc(N)nc(Nc3cccc(Br)c3)c2cc1OC` was 463 nM.
In the case of `Oc1ccc2c(Nc3cccc(Br)c3)ncnc2c1`, the IC50 was 4.7 nM.
In the case of `COc1ccc2c(Nc3cccc(Br)c3)ncnc2c1OC`, the IC50 was > 10000 nM.
Compound `CC(=O)Nc1ccc2c(Nc3cccc(Br)c3)ncnc2c1` came in with an IC50 of 40 nM.
In turn, `CN(C)c1cc2ncnc(Nc3cccc(Br)c3)c2cc1[N+](=O)[O-]` yielded an IC50 of 2000 nM.
As for `Nc1cc2ncnc(Nc3cccc(Br)c3)c2cc1[N+](=O)[O-]`, the figure is 53 nM; as for `O=[N+]([O-])c1ccc2c(Nc3cccc(Cl)c3)ncnc2c1`, 810 nM.
In turn, `CC(=O)Nc1cc2ncnc(Nc3cccc(Br)c3)c2cc1[N+](=O)[O-]` came in with an IC50 of 28 nM.
The value for `Nc1ccc2c(Nc3cccc(F)c3)ncnc2c1` was 2 nM; that for `COc1cc2ncnc(Nc3ccccc3)c2cc1OC` was 29 nM; that for `O=[N+]([O-])c1ccc2c(Nc3cccc(C(F)(F)F)c3)ncnc2c1` was > 10000 nM.
The value for `COc1cc2ncnc(Nc3cccc(I)c3)c2cc1OC` was 0.89 nM; that for `CN(C)c1cc2ncnc(Nc3cccc(Br)c3)c2cc1N` was 159 nM.
On to `COc1ccc2ncnc(Nc3cccc(Br)c3)c2c1OC`, for which inhibition was half-maximal at 1370 nM (IC50).
For the compound `COc1cc2ncnc(Nc3cccc(Br)c3)c2cc1N`, the IC50 is 3.8 nM.
